Measured values taken from the supplement of paper PMC10307832.

Tests used:
Assay in all cases: relative viability (nuclei count vs DMSO), 5 days (fraction); higher = more cells survive
Doramapimod + Phenformin = compound: Cc1ccc(-n2nc(C(C)(C)C)cc2NC(=O)Nc2ccc(OCCN3CCOCC3)c3ccccc23)cc1 [Doramapimod] + N=C(N)NC(=N)NCCc1ccccc1 [Phenformin] (partner 250 µM)
Outline: (§1)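 Values are medians from duplicate plates. Each reflects relative viability, defined as the nuclei count of treated wells over that of vehicle wells. Lung cancer cell lines in 1536-well plates were pin-tool dosed one day after seeding with one drug alone or with a fixed anchor-drug dose plus five library-drug doses (not always all listed) in √10 steps, then fixed, stained and imaged at 4× after 5 days.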

Doramapimod + Trametinib = compound: Cc1ccc(-n2nc(C(C)(C)C)cc2NC(=O)Nc2ccc(OCCN3CCOCC3)c3ccccc23)cc1 [Doramapimod] + CC(=O)Nc1cccc(-n2c(=O)n(C3CC3)c(=O)c3c(Nc4ccc(I)cc4F)n(C)c(=O)c(C)c32)c1 [Trametinib] (partner 0.02 µM)
Outline: as §1

IPA-3 + OSI-027 = compound: C1=CC=C2C(=C1)C=CC(=C2SSC3=C(C=CC4=CC=CC=C43)O)O [IPA-3] + COc1cccc2cc(-c3nc([C@H]4CC[C@H](C(=O)O)CC4)n4ncnc(N)c34)[nH]c12 [OSI-027] (partner 0.5 µM)
Outline: as §1

IPA-3 + Dasatinib = compound: C1=CC=C2C(=C1)C=CC(=C2SSC3=C(C=CC4=CC=CC=C43)O)O [IPA-3] + Cc1nc(Nc2ncc(C(=O)Nc3c(C)cccc3Cl)s2)cc(N2CCN(CCO)CC2)n1 [Dasatinib] (partner 0.075 µM)
Outline: as §1

Row | Cell Line | relative viability (Doramapimod + Phenformin; first compound 0.02 µM) | relative viability (Doramapimod + Phenformin; first compound 0.06325 µM) | relative viability (Doramapimod + Phenformin; first compound 0.2 µM) | relative viability (Doramapimod + Phenformin; first compound 0.6325 µM) | relative viability (Doramapimod + Phenformin; first compound 2 µM) | relative viability (Doramapimod + Trametinib; first compound 0.02 µM) | relative viability (Doramapimod + Trametinib; first compound 0.06325 µM) | relative viability (Doramapimod + Trametinib; first compound 0.2 µM) | relative viability (Doramapimod + Trametinib; first compound 0.6325 µM) | relative viability (Doramapimod + Trametinib; first compound 2 µM) | relative viability (IPA-3 + OSI-027; first compound 0.2 µM) | relative viability (IPA-3 + OSI-027; first compound 0.6325 µM) | relative viability (IPA-3 + OSI-027; first compound 2 µM) | relative viability (IPA-3 + OSI-027; first compound 6.325 µM) | relative viability (IPA-3 + OSI-027; first compound 20 µM) | relative viability (IPA-3 + Dasatinib; first compound 0.2 µM) | relative viability (IPA-3 + Dasatinib; first compound 0.6325 µM) | relative viability (IPA-3 + Dasatinib; first compound 2 µM) | relative viability (IPA-3 + Dasatinib; first compound 6.325 µM) | relative viability (IPA-3 + Dasatinib; first compound 20 µM)
1 | NCI-H727 | 0.652 | 0.498 | 0.445 | 0.544 | 0.576 | 0.389 | 0.395 | 0.406 | 0.4 | 0.32 | 0.851 | 0.703 | 0.546 | 0.613 | 0.634 | 0.295 | 0.423 | 0.328 | 0.385 | 0.389
2 | HARA | 0.464 | 0.495 | 0.464 |  | 0.425 | 0.634 | 0.414 | 0.749 | 0.602 | 0.5 | 0.605 | 0.45 | 0.479 | 0.396 | 0.606 | 0.264 | 0.245 | 0.286 | 0.348 | 0.277
3 | NCI-H2228 | 0.249 | 0.385 | 0.273 | 0.333 | 0.27 | 0.391 | 0.44 | 0.46 | 0.519 | 0.484 | 0.991 | 0.476 | 0.62 | 0.559 | 0.435 | 0.571 | 0.51 | 0.529 | 0.62 | 0.557
4 | LCLC-97TM1 | 0.456 | 0.424 | 0.488 | 0.38 | 0.269 | 0.169 | 0.225 | 0.249 | 0.265 | 0.204 | 0.403 | 0.521 | 0.436 | 0.498 | 0.502 | 0.933 | 0.844 | 0.945 | 1.01 | 0.83
5 | LC-2-ad | 0.571 | 0.619 | 0.641 | 0.517 | 0.487 | 0.992 | 0.92 | 0.906 | 0.981 | 0.855 | 0.937 | 0.878 | 0.858 | 0.871 | 1.02 | 0.616 | 0.537 | 0.662 | 0.611 | 0.615
6 | SK-LU-1 | 0.613 | 0.516 | 0.542 | 0.61 | 0.46 | 0.469 | 0.593 | 0.588 | 0.624 | 0.555 | 0.361 | 0.347 | 0.341 | 0.345 | 0.354 | 0.171 | 0.148 | 0.204 | 0.179 | 0.193
7 | EKVX | 0.256 | 0.24 | 0.253 | 0.179 | 0.204 | 0.32 | 0.268 | 0.328 | 0.352 | 0.313 | 0.649 | 0.68 | 0.738 | 0.728 | 0.786 | 0.538 | 0.544 | 0.599 | 0.537 | 0.486
8 | HCC-827 | 0.418 | 0.416 | 0.376 | 0.432 | 0.286 | 0.571 | 0.408 | 0.521 | 0.594 | 0.405 | 0.842 | 0.69 | 0.773 | 0.724 | 0.703 | 0.419 | 0.358 | 0.405 | 0.302 | 0.292
9 | NCI-H650 | 0.495 | 0.458 | 0.527 | 0.431 | 0.389 | 0.963 | 0.977 | 0.988 | 1.05 | 0.978 | 0.561 | 0.534 | 0.521 | 0.521 | 0.566 | 0.461 | 0.498 | 0.439 | 0.438 | 0.44
10 | CAL-12T | 0.552 | 0.593 | 0.621 | 0.625 | 0.479 | 0.333 | 0.325 | 0.342 | 0.402 | 0.297 | 0.884 | 0.63 | 0.676 | 0.475 | 0.656 | 0.627 | 0.418 | 0.379 | 0.409 | 0.524
11 | NCI-H1648 |  |  |  |  |  | 0.435 | 0.46 | 0.508 | 0.582 | 0.402 | 0.258 | 0.276 | 0.281 | 0.278 | 0.245 |  |  |  |  | 
12 | NCI-H522 | 0.6 | 0.573 | 0.621 | 0.677 | 0.603 | 0.717 | 0.703 | 0.799 | 0.727 | 0.633 | 0.719 | 0.619 | 0.751 | 0.764 | 0.846 | 0.875 | 0.922 | 0.847 | 0.86 | 0.884
13 | EPLC-272H | 0.294 | 0.243 | 0.356 | 0.291 | 0.274 | 0.25 | 0.294 | 0.302 |  | 0.291 | 0.293 | 0.281 | 0.236 | 0.264 | 0.335 | 0.337 | 0.325 | 0.413 | 0.411 | 0.543
14 | A-427 | 0.269 | 0.464 | 0.388 |  | 0.318 | 0.763 | 0.714 | 0.79 |  | 0.619 | 0.432 | 0.438 | 0.491 | 0.388 | 0.451 | 0.682 | 0.632 | 0.634 | 0.713 | 0.72
